Reference: patent publication US20020137929A1, “1 - (3-heterocyclylphenyl) isothiourea, -isourea, -guanidine and -amidine herbicidal agents” (Intellectual Property Department, BASF Aktiengesellschaft, priority 1998, published 2002)

Tests used:
[1] = test system: ECHCG (Barnyardgrass); assay: Preemergence herbicidal evaluation; assay type: in vivo, Echinochloa crus-galli; conditions: rated 4-5 weeks after treatment
In short: (§1)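 Sown cups got a single aqueous acetone spray of test compound (roughly 0.0156–0.500 kg/ha) before seedlings emerged. Evaluation, 4–5 weeks on, used a 0–9 visual scale covering plant stand, vigor, size, malformation, chlorosis and general appearance compared with controls.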

[2] = test system: TRZAWR (Wheat, Winter, cv Riband); assay: Preemergence herbicidal evaluation; assay type: in vivo, Triticum aestivum; conditions: rated 4-5 weeks after treatment
In short: as §1

[3] = test system: ECHORC (Watergrass (Calif.)); assay: Postemergence weed control under flooded paddy conditions; assay type: in vivo, Echinochloa oryzoides; conditions: postemergence weeds, 3-4 weeks after treatment
In short: (§2)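 Herbicidal effect is judged by eye on a 0–9 scale versus control, 3–4 weeks after dosing. Dosing is into flood water kept 1.5–3 cm over the soil, at about 0.0313–0.500 kg/ha in aqueous/acetone 50/50 v/v, on 3–5 cm weeds and 1.5–2.5-leaf rice seedlings.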

[4] = test system: ORYSAT (Rice, Tebonnet); assay: Preemergence herbicidal evaluation; assay type: in vivo, Oryza sativa, (L.) Tebonnet; conditions: rated 4-5 weeks after treatment
In short: as §1

[5] = test system: MOOVA (Monochoria); assay: Preemergence weed control under flooded paddy conditions; assay type: in vivo, Monochoria vaginalis; conditions: rated 3-4 weeks after treatment
In short: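 Visual injury scored 0-9 against control three to four weeks post-treatment, greenhouse-grown. Application: acetone/water (50/50) solutions dosed directly into flood water (1.5-3 cm over silt loam, planted top 0.5 cm), roughly 0.0313 to 0.500 kg/ha active ingredient.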

[6] = test system: CHEAL (Lambsquarters, Common); assay: Preemergence herbicidal evaluation; assay type: in vivo, Chenopodium album; conditions: rated 4-5 weeks after treatment
In short: as §1

[7] = test system: IPOHE (Morningglory, Ivyleaf); assay: Preemergence herbicidal evaluation; assay type: in vivo, Ipomoea hederacea; conditions: rated 4-5 weeks after treatment
In short: as §1

[8] = test system: IPOHE (Morningglory, Ivyleaf); assay: Postemergence herbicidal evaluation; assay type: in vivo, Ipomoea hederacea; conditions: postemergence
In short: (§3)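 Visual 0-9 injury score (stand, vigor, malformation, size, chlorosis, appearance vs untreated) taken four to five weeks post-spray, averaged across repeat tests. Test plants about two weeks old; foliar spray of acetone/water (1:1) with 0.5% surfactant delivering ~0.0156-0.500 kg active/ha.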

[9] = test system: TRZAWR (Wheat, Winter, cv Riband); assay: Postemergence herbicidal evaluation; assay type: in vivo, Triticum aestivum; conditions: postemergence
In short: as §3

[10] = test system: ABUTH (Velvetleaf); assay: Postemergence herbicidal evaluation; assay type: in vivo, Abutilon theophrasti; conditions: postemergence
In short: as §3

[11] = test system: ECHORC (Watergrass (Calif.)); assay: Preemergence weed control under flooded paddy conditions; assay type: in vivo, Echinochloa oryzoides; conditions: rated 3-4 weeks after treatment
In short: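 First, seeds or propagules go into the top 0.5 cm of silt loam; next, water is held 1.5 to 3 cm over the soil; then compound (50/50 acetone/water) is pipetted into it at about 0.0313 to 0.500 kg/ha; finally plants are rated visually 0-9 after three to four weeks.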

[12] = test system: SETVI (Foxtail, Green); assay: Preemergence herbicidal evaluation; assay type: in vivo, Setaria viridis; conditions: rated 4-5 weeks after treatment
In short: as §1

[13] = test system: CYPIR (Rice Flatsedge); assay: Postemergence weed control under flooded paddy conditions; assay type: in vivo, Cyperus iria; conditions: postemergence weeds, 3-4 weeks after treatment
In short: as §2

CCOC(=O)CN1C(=O)C(CC)SC1=Nc1cc(-n2c(=O)cc(C(F)(F)F)n(C)c2=O)c(F)cc1Cl (centres unmarked) [Compound 13, Ethyl 2-{{2-chloro-5-[3,6-dihydro-3-methyl-2,6-dioxo-4-(trifluoromethyl)-1(2H)-pyrimidinyl]-4-fluorophenyl}imino}-5-ethyl-4-oxo-3-thiazolidineacetate]
ECHCG preemergence herbicidal rating ([1]; rate 0.0156 kg/ha): 0.0
ECHCG preemergence herbicidal rating ([1]; rate 0.0313 kg/ha): 0.0
ECHCG preemergence herbicidal rating ([1]; rate 0.0625 kg/ha): 1.0
ECHCG preemergence herbicidal rating ([1]; rate 0.1250 kg/ha): 7.0
ECHCG preemergence herbicidal rating ([1]; rate 0.2500 kg/ha): 8.0
TRZAWR preemergence herbicidal rating ([2]; rate 0.0313 kg/ha): 1.0
TRZAWR preemergence herbicidal rating ([2]; rate 0.0625 kg/ha): 1.0
TRZAWR preemergence herbicidal rating ([2]; rate 0.1250 kg/ha): 4.0
TRZAWR preemergence herbicidal rating ([2]; rate 0.2500 kg/ha): 6.0
Herbicidal rating ECHORC ([3]; rate 0.0313 kg/ha): 5.5
Herbicidal rating ECHORC ([3]; rate 0.0625 kg/ha): 7.0
Herbicidal rating ECHORC ([3]; rate 0.1250 kg/ha): 8.0
Herbicidal rating ECHORC ([3]; rate 0.2500 kg/ha): 9.0
ORYSAT preemergence herbicidal rating ([4]; rate 0.0156 kg/ha): 0.0
ORYSAT preemergence herbicidal rating ([4]; rate 0.0313 kg/ha): 0.0
ORYSAT preemergence herbicidal rating ([4]; rate 0.0625 kg/ha): 0.0
ORYSAT preemergence herbicidal rating ([4]; rate 0.1250 kg/ha): 3.0
ORYSAT preemergence herbicidal rating ([4]; rate 0.2500 kg/ha): 4.0
Herbicidal rating MOOVA ([5]; 0.0156 kg/ha): 7.5
Herbicidal rating MOOVA ([5]; 0.0313 kg/ha): 9.0
Herbicidal rating MOOVA ([5]; 0.0625 kg/ha): 9.0
Herbicidal rating MOOVA ([5]; 0.1250 kg/ha): 9.0
Herbicidal rating MOOVA ([5]; 0.2500 kg/ha): 9.0
CHEAL preemergence herbicidal rating ([6]; rate 0.0156 kg/ha): 9.0
CHEAL preemergence herbicidal rating ([6]; rate 0.0313 kg/ha): 9.0
CHEAL preemergence herbicidal rating ([6]; rate 0.0625 kg/ha): 9.0
CHEAL preemergence herbicidal rating ([6]; rate 0.1250 kg/ha): 9.0
CHEAL preemergence herbicidal rating ([6]; rate 0.2500 kg/ha): 9.0
IPOHE preemergence herbicidal rating ([7]; rate 0.0156 kg/ha): 2.5
IPOHE preemergence herbicidal rating ([7]; rate 0.0313 kg/ha): 3.5
IPOHE preemergence herbicidal rating ([7]; rate 0.0625 kg/ha): 9.0
IPOHE preemergence herbicidal rating ([7]; rate 0.1250 kg/ha): 8.0
IPOHE preemergence herbicidal rating ([7]; rate 0.2500 kg/ha): 9.0
IPOHE herbicidal rating ([8]; rate 0.0156 kg/ha): 9.0
IPOHE herbicidal rating ([8]; rate 0.0313 kg/ha): 9.0
IPOHE herbicidal rating ([8]; rate 0.0625 kg/ha): 9.0
IPOHE herbicidal rating ([8]; rate 0.1250 kg/ha): 9.0
TRZAWR herbicidal rating ([9]; rate 0.0156 kg/ha): 4.5
TRZAWR herbicidal rating ([9]; rate 0.0313 kg/ha): 4.5
TRZAWR herbicidal rating ([9]; rate 0.0625 kg/ha): 6.0
TRZAWR herbicidal rating ([9]; rate 0.1250 kg/ha): 6.0
ABUTH herbicidal rating ([10]; rate 0.0156 kg/ha): 9.0
ABUTH herbicidal rating ([10]; rate 0.0313 kg/ha): 9.0
ABUTH herbicidal rating ([10]; rate 0.0625 kg/ha): 9.0
ABUTH herbicidal rating ([10]; rate 0.1250 kg/ha): 9.0
Herbicidal rating ECHORC ([11]; 0.0156 kg/ha): 3.5
Herbicidal rating ECHORC ([11]; 0.0313 kg/ha): 5.5
Herbicidal rating ECHORC ([11]; 0.0625 kg/ha): 7.0
Herbicidal rating ECHORC ([11]; 0.1250 kg/ha): 8.0
Herbicidal rating ECHORC ([11]; 0.2500 kg/ha): 9.0
SETVI preemergence herbicidal rating ([12]; rate 0.0156 kg/ha): 2.5
SETVI preemergence herbicidal rating ([12]; rate 0.0313 kg/ha): 4.5
SETVI preemergence herbicidal rating ([12]; rate 0.0625 kg/ha): 9.0
SETVI preemergence herbicidal rating ([12]; rate 0.1250 kg/ha): 9.0
SETVI preemergence herbicidal rating ([12]; rate 0.2500 kg/ha): 9.0
Herbicidal rating CYPIR ([13]; rate 0.0313 kg/ha): 0.0
Herbicidal rating CYPIR ([13]; rate 0.0625 kg/ha): 0.0
Herbicidal rating CYPIR ([13]; rate 0.1250 kg/ha): 0.5
Herbicidal rating CYPIR ([13]; rate 0.2500 kg/ha): 1.0
